Converted amounts (≈) assume the structure as drawn. Where two headings read alike, the source gives them in different places.
Key:
HuTu 80 = experiment: MTT cell viability test, HuTu 80; format: cell-based, human; conditions: Homo sapiens, HuTu80; incubation time 24 h
Description: (§1) Human cell cultures of tumor origin—HeLa (cervical tumor), HuTu 80 (human duodenal adenocarcinoma), ChangLiver (human liver HeLa-like line), and normal cell line WI38, VA 13 subline 2RA is a diploid human cell strain composed of fibroblasts derived from healthy lung tissue provided by The Gamaleya National Center for Epidemiology and Microbiology, as well as the Institute of Cytology of the Russian Academy of Sciences. They were grown in a nutrient medium DMEM (PanEco, Moscow, Russia) and MEM (PanEco, Moscow, Russia), containing fetal bovine serum (10% by volume) (ThermoFisher Scientific, Paisley, UK), Glutamax (2 mM) (Gibco, Scotland, UK), and penicillin-streptomycin (1% by volume) (PanEco, Moscow, Russia). The cultivation was carried out at 37 °C in a humidified CO2 atmosphere (5%).
(§2) Cell viability was determined by the MTT test. Cells were seeded in a 96-well plate in the amount of 1 × 10^4 cells/200 µL of complete nutrient medium and cultured at 37 °C in CO2 (5%). After 24 h of incubation, various concentrations of test compounds in the range of 0.1 to 100 μM were added to the cell cultures, and then the cells were cultured under the same conditions for 24 and 72 h. For each concentration, the experiment was carried out in triplicate.
(§3) All compounds were dissolved in DMSO and then diluted with the medium to the required concentration. […] The DMSO was also added to the control wells in a volume of 1%. After the incubation time, MTT (3-(4,5-dimethylthiazol-2-yl)-2,5-diphenyltetrazolium bromide, 5 mg/mL) was added to each well, and plates were additionally incubated for 2 h (until the characteristic color appeared).
(§4) Using a plate analyzer (Cytation3, BioTech Instruments Inc., Winooski, VT, USA), the optical density was determined at 530 nm.
(§5) The IC50 parameter was calculated using the AAT Bioquest program.
(§6) The selectivity index (SI) is calculated as the ratio between the IC50 for normal cells and the IC50 for cancer cells.

Chang Liver = experiment: MTT cell viability test, Chang liver; format: cell-based; conditions: Homo sapiens, incubation time 24 h
Description: as §1, §2, §3, §4, §5

M-HeLa = experiment: MTT cell viability test, M-HeLa; format: cell-based, human; conditions: Homo sapiens, M-HeLa; incubation time 24 h
Description: as §1, §2, §3, §4, §5, §6

[1] = system: Xanthomonas campestris B-610; experiment: Agar-well diffusion, bactericidal activity; format: cell-based
Description: Bacteria M. luteus, P. carotovorum subsp. carotovorum, P. atrosepticum, and P. fluorescens were grown in a meat–peptone medium (BP), and X. campestris was grown in the medium with glucose, yeast extract, and calcium carbonate (GYCa). Solid media contained Bacto agar (18 g/L); pH was adjusted to 7.2–7.4. […] For inoculum preparation, both fungal strains were initially grown on the agar GPY in Petri dishes and then transferred into the seed medium by punching out 5 mm of the agar plate culture with a self-designed cutter.
(§7) The antibacterial and antifungal activities of the compounds were explored using the agar-well diffusion method and the technique of mycelial radial growth inhibition. The method of diffusion in agar (measuring the diameter of growth inhibition zones) was used to determine the bactericidal activity. The 6-mm wells were made in agar medium (GYCa for Xanthomonas campestris or BP for other bacteria). Bacterial suspensions were distributed over the agar surface, and the tested compound’s solution (150 μL) was added to each well. The width of growth inhibition zones around the wells was determined after incubation for 36–40 h.

[2] = system: Pectobacterium carotovorum subsp. carotovorum MI; experiment: Agar-well diffusion, bactericidal activity; format: cell-based
From the text: (§8) Plant pathogenic bacterial strains Micrococcus luteus B-109, Pectobacterium atrosepticum 1043, Pectobacterium carotovorum subsp. carotovorum MI, Pseudomonas fluorescens EL-2.1, and Xanthomonas campestris B-610 and the fungal strain Fusarium oxysporum IBPPM 543 were from the Collection of Rhizosphere Microorganisms, IBPPM RAS (WFCC no. 975, WDCM no. 1021) (CM IBPPM, http://collection.ibppm.ru). The pathogenic fungus Phytophthora cactorum VKM F-985, provided by the All-Russian Collection of Microorganisms (VKM) and deposited at the A.E. Favorsky Irkutsk Institute of Chemistry, SB RAS, was also used as a test organism. Bacteria M. luteus, P. carotovorum subsp. carotovorum, P. atrosepticum, and P. fluorescens were grown in a meat–peptone medium (BP), and X. campestris was grown in the medium with glucose, yeast extract, and calcium carbonate (GYCa). Solid media contained Bacto agar (18 g/L); pH was adjusted to 7.2–7.4. All bacterial cultures were grown at 28 °C. The mycelial cultures of F. oxysporum and P. cactorum were grown on a glucose–peptone–yeast (GPY) nutrient medium at 27 °C. For inoculum preparation, both fungal strains were initially grown on the agar GPY in Petri dishes and then transferred into the seed medium by punching out 5 mm of the agar plate culture with a self-designed cutter.
as §7

Micrococcus luteus B-109 = experiment: Agar-well diffusion, bactericidal activity; format: cell-based
From the text: as §8, §7

[3] = system: Pectobacterium atrosepticum 1043; experiment: Agar-well diffusion, bactericidal activity; format: cell-based
From the text: as §8, §7

[4] = system: Pseudomonas fluorescens EL-2.1; experiment: Agar-well diffusion, bactericidal activity; format: cell-based
From the text: as §8, §7

[5] = system: Phytophthora cactorum VKM F-985; experiment: Mycelial radial growth inhibition; format: cell-based; conditions: Phytophthora cactorum; for inhibition at 10 µg/mL / inhibition at 15 µg/mL / inhibition at 30 µg/mL / inhibition at 60 µg/mL: read-out: Inhibition value, I (%)
From the text: as §8
(§9) For the fungicidal activity analysis, radial growth (colony diameters) of the fungi on a solid medium in the absence and in the presence of the compounds 5a–e and 7a–c solutions at various concentrations were compared. The method consisted of the following: A sterile GPY agar medium (20.0 mL), which was melted and then allowed to cool to approximately 60 °C, was mixed with the precisely measured volumes of the solutions under question and poured into a sterile Petri dish (90 mm i.d.). After the solidification of GPY agar, the media were inoculated by the fungus using 10-day-old cultures of F. oxysporum or P. cactorum. The inoculation was conducted by transferring a 5-mm (i.d.) GPY-agar block covered with mycelium to the center of the Petri dish, followed by incubation in a thermostat at 27 °C. The fungicidal effect was scored by the size of the mycelium colony on a Petri dish compared to the control without fungicidal admixtures to GPY agar. Each treatment was performed in at least four replicates in two independent experiments. The observation period ended when the control Petri dish was filled with mycelium (usually after 12 days). […] The solutions of the compounds were prepared with a concentration of 2 mmol/L (stock solution). For comparison, test compounds were also commonly applied as disinfecting agents, and antibiotics were used as a positive control.

[6] = system: Fusarium oxysporum IBPPM 543; experiment: Mycelial radial growth inhibition; format: cell-based; conditions: Fusarium oxysporum; for inhibition at 10 µg/mL / inhibition at 15 µg/mL / inhibition at 30 µg/mL / inhibition at 60 µg/mL: read-out: Inhibition value, I (%)
From the text: as §8, §9

SMILES: Cc1ccc(CN2C(=O)C(=O)c3cc(F)ccc32)cc1 [Compound 4a, 5-Fluoro-1-(4-methylbenzyl)indoline-2,3-dione]
- IC50 (HuTu 80): 44 ± 2.9 µM
- IC50 (Chang Liver): 80 ± 5.8 µM
- melting point: 111 to 112 °C
- IC50 (M-HeLa): 44.7 ± 3.3 µM

SMILES: O=C1C(=O)N(Cc2c(F)c(F)c(F)c(F)c2F)c2ccccc21 [Compound 8d]
- IC50 (HuTu 80): 54.1 ± 3.9 µM
- IC50 (Chang Liver): > 100 µM
- IC50 (M-HeLa): > 100 µM

SMILES: O=C1C(=O)N(Cc2ccc(F)cc2Cl)c2ccccc21 [Compound 8a]
- IC50 (HuTu 80): 64 ± 4.5 µM
- IC50 (Chang Liver): > 100 µM
- IC50 (M-HeLa): 50 ± 3.7 µM

SMILES: O=C1C(=O)N(Cc2cccc(C(F)(F)F)c2)c2ccc(F)cc21 [Compound 3e, 5-Fluoro-1-(3-(trifluoromethyl)benzyl)indoline-2,3-dione]
- melting point: 170 to 171 °C

SMILES: CC(C)(C)c1ccc(CN2C(=O)C(=O)c3cc(F)ccc32)cc1 [Compound 4c, 1-(4-(tert-Butyl)benzyl)-5-fluoroindoline-2,3-dione]
- IC50 (HuTu 80): 43 ± 3 µM
- IC50 (Chang Liver): 92.1 ± 7.4 µM
- melting point: 123 to 124 °C
- IC50 (M-HeLa): > 100 µM

SMILES: O=C1C(=O)N(Cc2c(F)cccc2F)c2ccccc21 [Compound 8c]
- IC50 (HuTu 80): 50.3 ± 3.6 µM
- IC50 (Chang Liver): 79 ± 5.5 µM
- IC50 (M-HeLa): 98.8 ± 6.9 µM

SMILES: O=C1C(=O)N(Cc2c(F)cccc2F)c2ccc(F)cc21 [Compound 3c, 1-(2,6-Difluorobenzyl)-5-fluoroindoline-2,3-dione]
- IC50 (HuTu 80): 41.2 ± 2.7 µM
- IC50 (Chang Liver): 95.5 ± 8 µM
- melting point: 131 to 132 °C
- IC50 (M-HeLa): 65.7 ± 5.9 µM

SMILES: [Na+].[O-]Cl [sodium hypochlorite, reference compound]
- width of the inhibition zone (mm), X. campestris ([1]; 1000 μg/mL): 4 mm
- width of the inhibition zone (mm), P. carotovorum subsp. carotovorum ([2]; 1000 μg/mL): 3 mm
- width of the inhibition zone (mm), M. luteus (Micrococcus luteus B-109; 1000 μg/mL): 2.5 mm
- width of the inhibition zone (mm), P. atrosepticum ([3]; 1000 μg/mL): 4 mm
- width of the inhibition zone (mm), Ps. fluorescens ([4]; 1000 μg/mL): 4 mm

SMILES: O=C1C(=O)N(Cc2ccc(Br)cc2F)c2ccccc21 [Compound 8b]
- IC50 (HuTu 80): 59.4 ± 4.2 µM
- IC50 (Chang Liver): 100 ± 8.4 µM
- IC50 (M-HeLa): 40 ± 2.8 µM

SMILES: N#Cc1c[nH]cc1-c1cccc2c1OC(F)(F)O2 [Fludioxonil, fludioxonil, reference compound]
- inhibition at 10 µg/mL ([5]; 72 h): 36%
- inhibition at 15 µg/mL ([5]; 72 h): 38%
- inhibition at 30 µg/mL ([5]; 72 h): 40%
- inhibition at 60 µg/mL ([5]; 72 h): 52%
- EC50 ([5]; 120 h, read-out: EC50, µg/mL at Day 5, P. cactorum): 29.5 µg/mL (≈ 119 µM)
- inhibition at 10 µg/mL ([5]; 120 h): 38%
- inhibition at 15 µg/mL ([5]; 120 h): 46%
- inhibition at 30 µg/mL ([5]; 120 h): 51%
- inhibition at 60 µg/mL ([5]; 120 h): 57%
- inhibition at 10 µg/mL ([5]; 168 h): 35%
- inhibition at 15 µg/mL ([5]; 168 h): 42%
- inhibition at 30 µg/mL ([5]; 168 h): 46%
- inhibition at 60 µg/mL ([5]; 168 h): 49%
- inhibition at 10 µg/mL ([5]; 216 h): 9%
- inhibition at 15 µg/mL ([5]; 216 h): 17%
- inhibition at 30 µg/mL ([5]; 216 h): 23%
- inhibition at 60 µg/mL ([5]; 216 h): 29%
- inhibition at 10 µg/mL ([6]; IBPPM543, 72 h): 18%
- inhibition at 15 µg/mL ([6]; IBPPM543, 72 h): 21%
- inhibition at 30 µg/mL ([6]; IBPPM543, 72 h): 26%
- inhibition at 60 µg/mL ([6]; IBPPM543, 72 h): 32%
- EC50 ([6]; IBPPM543, 120 h, read-out: EC50, µg/mL at Day 5, F. oxysporum): 83.3 µg/mL (≈ 336 µM)
- inhibition at 10 µg/mL ([6]; IBPPM543, 120 h): 23%
- inhibition at 15 µg/mL ([6]; IBPPM543, 120 h): 30%
- inhibition at 30 µg/mL ([6]; IBPPM543, 120 h): 33%
- inhibition at 60 µg/mL ([6]; IBPPM543, 120 h): 35%
- inhibition at 10 µg/mL ([6]; IBPPM543, 168 h): 6%
- inhibition at 15 µg/mL ([6]; IBPPM543, 168 h): 20%
- inhibition at 30 µg/mL ([6]; IBPPM543, 168 h): 23%
- inhibition at 60 µg/mL ([6]; IBPPM543, 168 h): 25%
- inhibition at 10 µg/mL ([6]; IBPPM543, 216 h): 4%
- inhibition at 15 µg/mL ([6]; IBPPM543, 216 h): 5%
- inhibition at 30 µg/mL ([6]; IBPPM543, 216 h): 8%
- inhibition at 60 µg/mL ([6]; IBPPM543, 216 h): 9%

SMILES: CCn1cc(C(=O)O)c(=O)c2cc(F)c(N3CCNCC3)cc21 [Norfloxacin, norfloxacin, reference compound]
- zone of inhibition at 500 µg/mL ([1]; Xanthomonas campestris, B610, read-out: width of the inhibition zone (mm), X. campestris): 7 mm
- zone of inhibition at 500 µg/mL ([2]; Pectobacterium carotovorum, 500 μg/mL, read-out: width of the inhibition zone (mm), P. carotovorum subsp. carotovorum): 8 mm
- zone of inhibition at 500 µg/mL (Micrococcus luteus B-109; Micrococcus luteus, B109, 500 μg/mL, read-out: width of the inhibition zone (mm), M. luteus): 7 mm
- zone of inhibition at 500 µg/mL ([3]; Pectobacterium atrosepticum, 1043, 500 μg/mL, read-out: width of the inhibition zone (mm), P. atrosepticum): 7 mm
- zone of inhibition at 500 µg/mL ([4]; Pseudomonas fluorescens, EL2.1, 500 μg/mL, read-out: width of the inhibition zone (mm), Ps. fluorescens): 8 mm

SMILES: N=C(NCCCCCCNC(=N)NC(=N)Nc1ccc(Cl)cc1)NC(=N)Nc1ccc(Cl)cc1 [Chlorohexidin, chlorohexidin, reference compound]
- width of the inhibition zone (mm), X. campestris ([1]; 500 μg/mL): 5 mm
- width of the inhibition zone (mm), P. carotovorum subsp. carotovorum ([2]; 500 μg/mL): 5 mm
- width of the inhibition zone (mm), M. luteus (Micrococcus luteus B-109; 500 μg/mL): 5 mm
- width of the inhibition zone (mm), P. atrosepticum ([3]; 500 μg/mL): 4 mm
- width of the inhibition zone (mm), Ps. fluorescens ([4]; 500 μg/mL): 4 mm
